{"source": "paper PMC8129715", "about": "(CPT: Pharmacometrics & Systems Pharmacology, 2021)", "key": {"[1]": {"test": "pKa by capillary electrophoresis method", "type": "physicochemical"}, "[2]": {"test_system": "other CYP isoforms (1A2, 2A6, 2B6, 2C8, 2C9, 2C19, 2D6, 2E1, 2J2, 3A5, 4F12)", "test": "Metabolism by recombinant human CYP isoforms", "type": "in vitro ADME", "details": "37°C for 20 min; unpublished data reported by Eisai Inc."}, "[3]": {"details": "capsule, cited from earlier work; for Observed AUC(0-t) / Observed Cmax: geometric mean; for Observed Cmax: healthy individuals"}, "[4]": {"test_system": "breast cancer resistance protein", "details": "in vitro; cited from earlier work"}, "P-glycoprotein": {"test_system": "P-glycoprotein", "details": "in vitro; cited from earlier work"}, "[5]": {"details": "multiple 10 mg oral doses, capsule, cited from earlier work"}, "[6]": {"test": "Biliary excretion in rats", "type": "in vivo"}, "CYP3A [7]": {"test_system": "CYP3A", "details": "cited from earlier work"}, "CYP2B6 [8]": {"test_system": "CYP2B6", "test": "In vitro induction", "type": "in vitro ADME", "details": "unpublished data reported by Eisai Inc."}, "[9]": {"details": "cited from earlier work"}, "[10]": {"details": "single 10 mg oral dose, IR tablet, DDI study, cited from earlier work"}, "CYP3A4 [11]": {"test_system": "CYP3A4", "test": "In vitro induction", "type": "in vitro ADME", "details": "unpublished data reported by Eisai Inc."}, "[12]": {"test": "In vitro plasma protein binding", "type": "in vitro ADME, human", "details": "unpublished data reported by Eisai Inc."}, "CYP3A [13]": {"test_system": "CYP3A", "test": "In vitro time-dependent inhibition", "type": "in vitro ADME", "details": "unpublished data reported by Eisai Inc."}, "[14]": {"test": "Human blood to plasma concentration ratio", "type": "in vitro ADME"}, "CYP3A4 [15]": {"target": "CYP3A4 (Homo sapiens, UniProt P08684)", "sequence (P08684 whole entry, canonical isoform)": "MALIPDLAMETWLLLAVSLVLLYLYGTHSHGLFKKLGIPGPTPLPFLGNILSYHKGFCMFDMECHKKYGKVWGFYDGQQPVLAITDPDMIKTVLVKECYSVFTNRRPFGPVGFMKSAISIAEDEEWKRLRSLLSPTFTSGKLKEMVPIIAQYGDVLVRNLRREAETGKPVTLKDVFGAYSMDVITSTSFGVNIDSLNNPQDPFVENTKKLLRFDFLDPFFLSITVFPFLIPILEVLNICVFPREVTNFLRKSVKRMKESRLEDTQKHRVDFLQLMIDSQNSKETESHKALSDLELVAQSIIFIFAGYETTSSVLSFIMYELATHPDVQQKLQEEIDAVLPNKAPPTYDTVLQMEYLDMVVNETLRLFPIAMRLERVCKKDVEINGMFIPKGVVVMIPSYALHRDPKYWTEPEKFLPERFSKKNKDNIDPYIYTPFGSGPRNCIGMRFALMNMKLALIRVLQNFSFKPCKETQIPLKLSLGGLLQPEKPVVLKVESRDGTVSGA", "test": "Metabolism by recombinant human CYP isoforms", "type": "in vitro ADME", "details": "37°C for 20 min; unpublished data reported by Eisai Inc."}, "CYP2B6 [16]": {"test_system": "CYP2B6", "details": "lemborexant 10 mg q.d. for 13 days, bupropion 75 mg on day 10, healthy adults; cited from earlier work"}, "[17]": {"details": "single 10 mg oral dose, IR tablet, ref study E2006-A001-008 (NCT02089412), cited from earlier work; for Observed Cmax: geometric mean"}, "[18]": {"details": "cited from earlier work", "remark": "listed apart in the source"}, "[19]": {"details": "human mass-balance study, cited from earlier work"}, "[20]": {"test_system": "cryopreserved human hepatocytes", "test": "Metabolism in cryopreserved human hepatocytes with CYP inhibitors", "type": "in vitro ADME", "details": "1-aminobenzotriazole, troleandomycin and ketoconazole"}, "[21]": {"test": "PBPK simulation of lemborexant PK in healthy individuals", "set-up": "species or system human"}, "[22]": {"details": "co-administration with rifampicin 600 mg q.d."}, "[23]": {"details": "lemborexant 10 mg with fluconazole 200 mg q.d."}, "[24]": {"details": "multiple 10 mg oral doses, day 1"}, "[25]": {"details": "multiple 10 mg oral doses, day 14"}, "[26]": {"details": "single 10 mg oral dose, IR tablet, fasted, food effect study"}, "[27]": {"details": "single 10 mg oral dose, IR tablet, fed"}, "[28]": {"details": "single 10 mg oral dose, solution vs capsule"}, "[29]": {"details": "single 100 mg oral dose, solution vs capsule"}}, "note": "Like-named read-outs stand apart in the source and are kept apart here."}
{"smiles": "Cc1ncc(OC[C@@]2(c3cccc(F)c3)C[C@H]2C(=O)Nc2ccc(F)cn2)c(C)n1", "note": "[lemborexant]", "values": [{"measurement": "pKa", "setting": "[1]", "result": "< 3.5"}, {"measurement": "residual ratio after incubation with other recombinant CYP isoforms", "setting": "[2]", "result": "≥ 81", "unit": "%"}, {"measurement": "Observed AUC(0-t)", "setting": "[3]; single 2.5 mg oral dose", "result": 74.4, "unit": "ng·h/mL"}, {"measurement": "Observed Cmax", "setting": "[3]; single 2.5 mg oral dose", "result": 14.9, "unit": "ng/mL"}, {"measurement": "Observed AUC(0-t)", "setting": "[3]; single 10 mg oral dose", "result": 274, "unit": "ng·h/mL"}, {"measurement": "Observed Cmax", "setting": "[3]; single 10 mg oral dose", "result": 32.0, "unit": "ng/mL"}, {"measurement": "Observed Tmax", "setting": "[3]; single 10 mg oral dose, median", "result": 1.00, "unit": "h"}, {"measurement": "Observed AUC(0-t)", "setting": "[3]; single 100 mg oral dose", "result": "4,300 ng∙h/ml"}, {"measurement": "Observed Cmax", "setting": "[3]; single 100 mg oral dose", "result": 242, "unit": "ng/mL"}, {"measurement": "transport of lemborexant via breast cancer resistance protein", "setting": "[4]", "result": "negligible"}, {"measurement": "transport of lemborexant via P-glycoprotein", "setting": "P-glycoprotein", "result": "negligible"}, {"measurement": "Observed AUC(0-t)", "setting": "[5]; day 1, geometric mean", "result": 182, "unit": "ng·h/mL"}, {"measurement": "Observed Cmax", "setting": "[5]; day 1, geometric mean", "result": 28.0, "unit": "ng/mL"}, {"measurement": "Observed Tmax", "setting": "[5]; day 1, median", "result": 3.25, "unit": "h"}, {"measurement": "Observed AUC(0-t)", "setting": "[5]; day 14, geometric mean", "result": 321, "unit": "ng·h/mL"}, {"measurement": "Observed Cmax", "setting": "[5]; day 14, geometric mean", "result": 44.8, "unit": "ng/mL"}, {"measurement": "Observed Tmax", "setting": "[5]; day 14, median", "result": 1.75, "unit": "h"}, {"measurement": "biliary excretion of lemborexant", "setting": "[6]", "result": "no biliary excretion"}, {"measurement": "increase in AUCR with strong and moderate CYP3A inhibitors", "setting": "CYP3A [7]; co-administered with itraconazole and fluconazole", "result": "≤ 3.8", "unit": "fold"}, {"measurement": "reduction of lemborexant AUC(0-inf)", "setting": "CYP3A [7]; [22]", "result": 97, "unit": "%"}, {"measurement": "reduction of lemborexant Cmax", "setting": "CYP3A [7]; [22]", "result": 92, "unit": "%"}, {"measurement": "increase in lemborexant AUC(0-t)", "setting": "CYP3A [7]; [23]", "result": 3.8, "unit": "fold"}, {"measurement": "increase in lemborexant Cmax", "setting": "CYP3A [7]; [23]", "result": 1.6, "unit": "fold"}, {"measurement": "increase in lemborexant Cmax", "setting": "CYP3A [7]; lemborexant 10 mg with itraconazole 200 mg q.d.", "result": 1.36, "unit": "fold"}, {"measurement": "inductive effect on CYP2B6", "setting": "CYP2B6 [8]", "result": "weak"}, {"measurement": "in vitro plasma protein binding (bound)", "setting": "[9]; human plasma, 100–1000 ng/ml, no concentration dependency", "result": "87.4–88.7%"}, {"measurement": "Fu (fraction unbound in plasma)", "setting": "[9]; mean value based on lemborexant 100 ng/ml", "result": 0.113}, {"measurement": "Observed AUC(0-t)", "setting": "[10]; geometric mean", "result": 411, "unit": "ng·h/mL"}, {"measurement": "Observed Tmax", "setting": "[10]; median", "result": 1.00, "unit": "h"}, {"measurement": "Observed Cmax", "setting": "[10]; healthy individuals, geometric mean", "result": 54.3, "unit": "ng/mL"}, {"measurement": "inductive effect on CYP3A4", "setting": "CYP3A4 [11]", "result": "weak"}, {"measurement": "Main binding protein in plasma", "setting": "[12]", "result": "human serum albumin, low‐density lipoprotein, and high‐density lipoprotein"}, {"measurement": "time-dependent inhibition on CYP3A", "setting": "CYP3A [13]", "result": "weak"}, {"measurement": "blood plasma ratio", "setting": "[14]; B:P (blood-to-plasma partition ratio), mean, mean value from unpublished data reported by Eisai Inc.", "result": 0.636}, {"measurement": "blood plasma ratio", "setting": "[14]; human blood to plasma concentration ratio (B:P), concentration range 100–1000 ng/ml, unpublished data reported by Eisai Inc.", "result": "0.61 to 0.656"}, {"measurement": "residual ratio after incubation with recombinant CYP3A4", "setting": "CYP3A4 [15]", "result": 30, "unit": "%"}, {"measurement": "decrease in plasma exposures of S-bupropion", "setting": "CYP2B6 [16]", "result": 45.5, "unit": "%"}, {"measurement": "Observed Cmax", "setting": "[17]; fasted, food effect study", "result": 57.1, "unit": "ng/mL"}, {"measurement": "Observed Tmax", "setting": "[17]; fasted, food effect study, median", "result": 1.00, "unit": "h"}, {"measurement": "Observed Cmax", "setting": "[17]; fed (standard high-fat meal)", "result": 44.1, "unit": "ng/mL"}, {"measurement": "clinical efficacy (sleep)", "setting": "[18]; doses of 5 mg and above", "result": "clinically meaningful sleep benefits"}, {"measurement": "somnolence adverse events", "setting": "[18]; lemborexant exposures greater than 10 mg", "result": "increased risk of somnolence adverse events"}, {"measurement": "CL/F (apparent oral clearance)", "setting": "[19]; 10 mg capsule", "result": 32.8, "unit": "L/h"}, {"measurement": "unchanged lemborexant in feces", "setting": "[19]; [14C]lemborexant 10 mg", "result": "13.0 % of dose"}, {"measurement": "unchanged lemborexant in urine", "setting": "[19]; [14C]lemborexant 10 mg", "result": "not detected"}, {"measurement": "lemborexant metabolism in human hepatocytes in presence of CYP inhibitors", "setting": "[20]", "result": "completely inhibited"}, {"measurement": "fold difference (predicted/observed) of Cmax ratio for fasted and fed conditions", "setting": "[21]; food effect study 008, 10 mg IR tablet", "result": 0.768}, {"measurement": "Fold difference, predicted/observed, AUC(0-t)", "setting": "[21]; [24]", "result": 0.92}, {"measurement": "Fold difference, predicted/observed, Cmax", "setting": "[21]; [24]", "result": 0.86}, {"measurement": "Fold difference, predicted/observed, AUC(0-t)", "setting": "[21]; [25]", "result": 1.02}, {"measurement": "Fold difference, predicted/observed, Cmax", "setting": "[21]; [25]", "result": 0.73}, {"measurement": "Fold difference, predicted/observed, AUC(0-t)", "setting": "[21]; single 2.5 mg oral dose, solution vs capsule", "result": 0.89}, {"measurement": "Fold difference, predicted/observed, AUC(0-t)", "setting": "[21]; single 10 mg oral dose, IR tablet", "result": 0.80}, {"measurement": "Fold difference, predicted/observed, AUC(0-t)", "setting": "[21]; [26]", "result": 0.85}, {"measurement": "Fold difference, predicted/observed, Cmax", "setting": "[21]; [26]", "result": 0.45}, {"measurement": "Fold difference, predicted/observed, AUC(0-t)", "setting": "[21]; [27]", "result": 0.71}, {"measurement": "Fold difference, predicted/observed, Cmax", "setting": "[21]; [27]", "result": 0.34}, {"measurement": "Fold difference, predicted/observed, AUC(0-t)", "setting": "[21]; [28]", "result": 1.29}, {"measurement": "Fold difference, predicted/observed, Cmax", "setting": "[21]; [28]", "result": 0.85}, {"measurement": "Fold difference, predicted/observed, AUC(0-t)", "setting": "[21]; [29]", "result": 0.76}, {"measurement": "Fold difference, predicted/observed, Cmax", "setting": "[21]; [29]", "result": 1.08}]}
